US4956355A, “Agents for the arrest and therapy of retroviral infections” (Colthurst Limited, priority 1987, dated 1990)

Key:
HIV in human macrophages [1] = experiment: Inhibition of cytoplasmic HIV p24 antigen in HIV-infected macrophages; assay type: cell-based; settings: 10^-4 molar; three donors; FIG. 4
Experimental: (§1) 1. […] All three viral strains were grown in the Tissue Culture Laboratory of the AIDS Activity Division of San Francisco General Hospital where titers of […] infectious units per ml were routinely achieved.
(§2) 2. Source of cells: The VB cell line used in Example 1 is a T lymphoma cell line that is highly susceptible to infection with HIV, and expresses high levels of cell surface CD4 molecules. This cell line forms syncytia within two days after infection with all strains of HIV tested to date. […] This is used to quantitate infection in the absence of syncytial formation, infection being quantitated by immunofluorescence assays. The HXB/H9 cell line (Example 6) is an H9 cell population that chronically produces the HTLV-IIIB strain of HIV and is utilised in experiments testing antiviral effects on chronically infected cell lines. Human macrophages were prepared from peripheral blood mononuclear cells either obtained from the blood bank as a buffy coat, or as a leukophoresis preparation. Crowe et al. supra have devised an assay system that allows quantitation of HIV infection, and inhibition of infection using immunocytofluorographic analysis. In order to quantitate HIV infection in macrophages, they grow macrophages in Teflon (Trade Mark) culture vessels which maintain macrophages in suspension in vitro culture for up to six months. Cell surface and cytoplasmic immunofluorescence staining is then performed to quantitate antigens in macrophages by flow cytometry.
3. Flow cytometry: An Ortho Cytofluorgraf II-S (Trade Mark) that has a biohazard containment flow cell was used for analysis of HIV infected samples. HIV p24 antigens were detected utilizing a mouse monoclonal anti-p24 (du Pont), and mouse antibodies were identified utilizing an FITC conjugated goat anti-mouse IgG. […]
The cells from the experiment described in Example 3 were analysed, and the cytoplasm was analysed for the presence of HIV p24 to directly test whether HIV p24 antigen production was inhibited within those infected cells. […]

[2] = tested on: HIV in VB T lymphoma cell line; experiment: Inhibition of HIV mediated cytopathic effects (multinucleated giant/syncytial cell formation) in acutely infected VB tumor cell line; assay type: cell-based
Experimental: as §1, §2
5. Inhibition of acute infection: Several assays were utilized to test for inhibition of acute infection; these included:
(a) Inhibition of multinucleated giant cell formation in acutely infected VB cells infected at a multiplicity of infection of 1, and scored two days after infection in the presence or absence of varying concentrations of drug, for the formation of multinucleated giant cells. (free virus is washed out after a one hour incubation pretreatment at room temperature). […] Supernatants were also isolated and the level of HIV p24 antigen determined. Infectious virus was measured in treated cultures by performing a syncytial assay as described above.
(§3) Compounds A and B were tested for inhibition of T lymphoma cell cytopathic effect at various drug concentrations after acute infection with HIV for 48 hours. […] It is possible that the diminished effects noted in later experiments could have been secondary to drug stability problems.

[3] = tested on: peripheral blood lymphocytes; experiment: Nonspecific toxicity to peripheral blood lymphocytes; assay type: cell-based, human
[4] = tested on: HIV in chronically infected human macrophages; experiment: Antiviral testing of chronically HIV infected macrophages; assay type: cell-based
From the text: as §2
3. Flow cytometry: An Ortho Cytofluorgraf II-S (Trade Mark) that has a biohazard containment flow cell was used for analysis of HIV infected samples. HIV p24 antigens were detected utilizing a mouse monoclonal anti-p24 (du Pont), and mouse antibodies were identified utilizing an FITC conjugated goat anti-mouse IgG.
6. Analysis of chronically infected cells: To determine whether compounds A and B are effective at inhibiting HIV expression in macrophages and chronically infected T cells, the following experiments were performed. The chronically infected T cell line, HXB/H9 was exposed to various concentrations of drug for four days in vitro. At four days, the HXB cells were assayed for the presence of p24 intracytoplasmically, and supernatants were assayed for the presence of infectious virus as described above.
Because macrophages can be infected and produce HIV for very long periods of time without substantial loss of viability, chronically infected cells were tested, specifically a population that was between 30 and 50% HIV antigen positive, for inhibition of cytoplasmic HIV p24 antigen production. FIG. 5 indicates the results of three separate experiments carried out.

VB T lymphoma cell line = experiment: Nonspecific toxicity to VB cell line; assay type: cell-based, human; settings: 10^-4 molar
Experimental: (§4) 7. Analysis of nonspecific toxicity to the target cells with Compounds A and B. The VB, H9 and HXB cell lines were exposed to different concentrations of Compounds A and B as were normal human macrophages for the length of time the drug was in contact with each cell line as described in the above assays. Cell numbers were counted, and live versus dead were determined by Trypan blue exclusion assays. These tests were required to determine a therapeutic index between nonspecific toxic effects on the described cells, compared with potential effective antiviral effects in vitro (Example 6).
as §3

tumor cell lines = experiment: Toxicity to tumor cell lines, Examples 1 to 7; assay type: cell-based, human; settings: 10^-4 molar; all experiments of Examples 1 to 7
Experimental: as §4

HXB cell line = experiment: Killing of HXB cells; assay type: cell-based, human; settings: 10^-4 molar
Experimental: as §4

normal human macrophages = experiment: Nonspecific toxicity to normal human macrophages; assay type: cell-based
Experimental: as §4

HIV in HXB/H9 cell line = experiment: Antiviral testing of chronically HIV infected cell line HXB; assay type: cell-based; settings: other than killing with compound B at 10^-4 molar
Experimental: as §1
as §2, with “Human macrophages were prepared from peripheral blood mononuclear cells either obtained from the blood bank as a buffy coat, or as a leukophoresis preparation.” left out, “cytometry. […]” for “cytometry.”

HIV in human macrophages [5] = experiment: Inhibition of HIV production in normal human macrophages (supernatant p24, acute infection); assay type: cell-based
Experimental: as §1, §2
(§5) 4. HIV soluble p24 antigen detection: Soluble p24 antigens were measured with the Abbott HIV antigen detection system.
(c) To test whether Compounds A and B were effective at blocking acute infection of macrophages, macrophages from Teflon cultures were exposed at a multiplicity of 1 to HIV-DV in the presence or absence of various concentrations of drug (Examples 3-5). Normally, HIV expression peaks in human macrophages at approximately ten days after initial infection. Therefore, after infection for one hour at room temperature, followed by a wash and resuspension of the macrophages in various drug concentrations, macrophages were stained for the presence of p24 antigen at day ten. Culture supernatants from these macrophages were assayed for the presence of soluble p24, and infectious virus as described above.
To test whether compounds A and B might be active at inhibiting infection of normal human macrophages, a spectrum of drug concentrations were tested for inhibition of acute infection, and inhibition of HIV expression in chronically infected macrophages. […] After acute infection (one hour) cells were incubated in various concentrations of compounds A and B, and 7 days after the initial infection supernatants were harvested for p24 antigen quantitation. […]

[6] = tested on: HIV in activated peripheral blood lymphocytes; experiment: Inhibition of HIV mediated cytopathic effects / p24 antigen production in activated peripheral blood lymphocytes; assay type: cell-based; settings: for p24 antigen production: activated PBL, about 7 days after infection, FIG. 2
Experimental: as §1, §5
(b) Although the VB T lymphoma cell line behaves in a similar manner to peripheral blood CD4 positive T lymphocytes in regard to HIV induced cytopathic effects, the above described experiments were performed on phytohemagglutinin (PHA) activated lymphocytes to determine whether lymphocytes are more or less sensitive to Compounds A and B than is the VB cell line. In this assay system, at the time that multinucleated giant cells appeared within infected lymphocyte cultures, the supernatants were analyzed for the presence of HIV p24 antigens and were titered on indicator VB lymphoma cells to determine the titer of infectious virus present at each point.
To test whether the effects of compounds A and B on acute VB T lymphoma infection would be mimicked by activated peripheral blood lymphocytes (PBC), HIV at a multiplicity of infection of one was added to lymphocytes that had been activated for 48 hours with 2 μg per ml of PHA. After the initial infection for one hour, the activated lymphocytes were washed and resuspended for the one week of culture. Multinucleated giant cells began to form approximately 7 days after the initial infection, at which time the culture supernatants were harvested and tested for the presence of HIV p24 antigens. The accumulation of HIV p24 antigens in the supernatant is representative of production of HIV from infected cells.

HIV = experiment: Oral dehydroepiandrosterone sulphate in AIDS patients, T4 cell count; assay type: in vivo, human patients; settings: patients X and Y, 300 mg once per day then 100 mg, day 5 to day 17
Experimental: Dehydroepiandrosterone sulphate was measured into unit doses of 300 mg and 100 mg and each unit dose enclosed in a soft gelatin capsule.
(A) A patient sero positive for HIV and diagnosed as suffering from AIDS was treated as follows. For twelve consecutive days, the patient was treated by administering the encapsulated compound orally to the patient. For the first eleven days, a unit dose of 300 mg was administered, once per day. On the twelfth day, the patient was given a single unit dose of 100 mg of the compound.
Blood samples were taken from the patients on five occasions over the twenty-six day period. The first tests were carried out on each patient on day 1 and included measurements of T1, T4 and T8 cell counts, as well as, sedimentation rate. The treatment commenced on day 5, and continued to day 17. From day 5 to day 16, each patient, as already discussed, received a single unit dose of 300 mg of dehydroepiandrosterone sulphate orally and on day 17 100 mg was administered. The aforementioned tests were repeated on each patient on day 9, day 17, day 24 and day 26.

For `C[C@]12CC[C@H](O)C[C@@H]1CC[C@@H]1[C@@H]2CC[C@]2(C)C(=O)[C@H](Br)C[C@@H]12` [B, 16α-bromoepiandrosterone], the “HIV p24 cytoplasmic antigen production” value (HIV in human macrophages [1]) was “substantially inhibited”, the “inhibition of HIV mediated multinucleated syncytial cell formation, compared with compound A” value ([2]; VB cells, acute infection, 48 hours, FIG. 1, average of two experiments) was “more active” and the “antiviral effects in comparison with AZT, T lymphoma cells” value ([2]; acute infection) was “inferior”. For the same compound, the “antiviral effect in acute infection studies of T lymphoma cells” value ([2]; acute infection, conclusions) was “mild antiviral effect”, the “inhibition of cytopathic effect in two subsequent experiments” value ([2]; compounds diluted in DMSO, possibly secondary to drug stability problems) was “less striking effect” and the “toxicity with the PBL cultures” value ([3]; 10^-4 and 10^-5 molar) was “No appreciable toxicity”. The “extreme toxicity seen in VB cells, in normal peripheral blood lymphocytes” value ([3]; 10^-4 molar) was “not shared by either the normal peripheral blood lymphocytes or macrophages”, the “toxicity to peripheral blood lymphocytes” value ([3]; 10^-4 to 10^-8 molar) was “nor was there appreciable toxicity” and the “inhibition compared with inhibition of acute infection of macrophages” value ([4]; 10^-4 and 10^-5 molar, FIG. 5 vs FIG. 4) was “somewhat less than the inhibition of acute infection of macrophages”. For the same compound, the “inhibition of cytoplasmic HIV p24 antigen production in chronically infected macrophages” value ([4]; both 10^-4 and 10^-5 molar, three experiments, FIG. 5) was “some inhibition”, the “toxicity to VB T lymphoma cell line” value (VB T lymphoma cell line) was “extremely toxic” and the “toxicity to tumor cell lines” value (tumor cell lines) was “appreciable toxicity”. For the same compound, the “killing of HXB cells” value (HXB cell line) was “killing”, the “extreme toxicity seen in VB cells, in macrophages” value (normal human macrophages; 10^-4 molar) was “not shared by either the normal peripheral blood lymphocytes or macrophages” and the “toxicity in normal macrophages” value (normal human macrophages; 10^-4 to 10^-8 molar) was “not appreciable toxicity”. For the same compound, the “inhibition of HIV production of cytopathic effects in chronically infected lymphoma cell line” value (HIV in HXB/H9 cell line) was “no specific inhibition”, the “decrease in production of HIV p24 antigens (supernatant)” value (HIV in human macrophages [5]; 10^-4 through 10^-8 molar, 7 days after acute infection, FIG. 3) was “approximately 50%” and the “HIV infection and HIV expression in macrophages” value (HIV in human macrophages [5]; in vitro, reproducible, six separate monocyte/macrophage donors) was “inhibit HIV infection and HIV expression in macrophages”. For the same compound, the p24 antigen production ([6]; 10^-4 molar) was “moderately inhibited”, the p24 antigen production ([6]; 10^-5 molar) was “slightly less inhibited” and the “antiviral effects in comparison with AZT, lymphocytes” value ([6]; acute infection) was “inferior”. For the same compound, the “antiviral effect in acute infection studies of lymphocytes” value ([6]; acute infection, conclusions) was “mild antiviral effect”.
With `C[C@]12CC[C@H](OS(=O)(=O)O)CC1=CC[C@@H]1[C@@H]2CC[C@]2(C)C(=O)CC[C@@H]12` [dehydroepiandrosterone sulphate] the T4 cell count (HIV) was “stabilise”.
